Test results taken from ChEMBL document CHEMBL3994622, “Design and synthesis of new RAF kinase-inhibiting antiproliferative quinoline derivatives. Part 2: Diarylurea derivatives” (Eur J Med Chem, 2017).

Assays:
SW-620 = experiment: Growth inhibition of human SW620 cells incubated for 48 hrs by sulforhodamine B assay; type: functional; conditions: SW-620, 48 h
NCI-H23 = experiment: Growth inhibition of human NCI-H23 cells incubated for 48 hrs by sulforhodamine B assay; type: functional; conditions: NCI-H23, 48 h
U-251 = experiment: Growth inhibition of human U251 cells incubated for 48 hrs by sulforhodamine B assay; type: functional; conditions: U-251, 48 h
MCF7 = experiment: Growth inhibition of human MCF7 cells incubated for 48 hrs by sulforhodamine B assay; type: functional; conditions: MCF7, 48 h
NCI-H522 = experiment: Growth inhibition of human NCI-H522 cells incubated for 48 hrs by sulforhodamine B assay; type: functional; conditions: NCI-H522, 48 h
MDA-MB-231 = experiment: Growth inhibition of human MDA-MB-231 cells incubated for 48 hrs by sulforhodamine B assay; type: functional; conditions: MDA-MB-231, 48 h
SK-OV-3 = experiment: Growth inhibition of human SKOV3 cells incubated for 48 hrs by sulforhodamine B assay; type: functional; conditions: SK-OV-3, 48 h
K562 = experiment: Growth inhibition of human K562 cells incubated for 48 hrs by sulforhodamine B assay; type: functional; conditions: K562, 48 h
SR = experiment: Growth inhibition of human SR cells assessed as cell growth at 0.1 uM incubated for 48 hrs by sulforhodamine B assay relative to control; type: functional; conditions: read-out: Activity
[1] = target: RAF proto-oncogene serine/threonine-protein kinase (Homo sapiens, UniProt P04049); experiment: Inhibition of human c-RAF using MEK1 as substrate in presence of [33P]ATP by Hotspot assay
SNB-75 = experiment: Growth inhibition of human SNB75 cells assessed as cell growth at 1 uM incubated for 48 hrs by sulforhodamine B assay relative to control; type: functional; conditions: SNB-75, 48 h, read-out: Activity
HCT-116 = experiment: Growth inhibition of human HCT116 cells incubated for 48 hrs by sulforhodamine B assay; type: functional; conditions: HCT-116, 48 h
SF-539 = experiment: Growth inhibition of human SF539 cells incubated for 48 hrs by sulforhodamine B assay; type: functional; conditions: SF-539, 48 h
SNB-19 = experiment: Growth inhibition of human SNB19 cells assessed as cell growth at 100 uM incubated for 48 hrs by sulforhodamine B assay relative to control; type: functional; conditions: SNB-19, 48 h, read-out: Activity
HOP-92 = experiment: Growth inhibition of human HOP92 cells incubated for 48 hrs by sulforhodamine B assay; type: functional; conditions: HOP-92, 48 h
A549 = experiment: Growth inhibition of human A549/ATCC cells incubated for 48 hrs by sulforhodamine B assay; type: functional; conditions: A549, 48 h
OVCAR-5 = experiment: Growth inhibition of human OVCAR5 cells incubated for 48 hrs by sulforhodamine B assay; type: functional; conditions: OVCAR-5, 48 h
SK-MEL-5 = experiment: Growth inhibition of human SK-MEL-5 cells assessed as cell growth at 100 uM incubated for 48 hrs by sulforhodamine B assay relative to control; type: functional; conditions: SK-MEL-5, 48 h, read-out: Activity
MDA-MB-435 = experiment: Growth inhibition of human MDA-MB-435 cells incubated for 48 hrs by sulforhodamine B assay; type: functional; conditions: MDA-MB-435, 48 h
NCI-H460 = experiment: Growth inhibition of human NCI-H460 cells incubated for 48 hrs by sulforhodamine B assay; type: functional; conditions: NCI-H460, 48 h
SF-295 = experiment: Growth inhibition of human SF295 cells incubated for 48 hrs by sulforhodamine B assay; type: functional; conditions: SF-295, 48 h
CAKI-1 = experiment: Growth inhibition of human Caki1 cells incubated for 48 hrs by sulforhodamine B assay; type: functional; conditions: CAKI-1, 48 h
NCI/ADR-RES = experiment: Growth inhibition of human NCI/ADR-RES cells incubated for 48 hrs by sulforhodamine B assay; type: functional
OVCAR-8 = experiment: Growth inhibition of human OVCAR8 cells assessed as cell growth at 0.01 uM incubated for 48 hrs by sulforhodamine B assay relative to control; type: functional; conditions: OVCAR-8, 48 h, read-out: Activity
TK-10 = experiment: Growth inhibition of human TK10 cells incubated for 48 hrs by sulforhodamine B assay; type: functional; conditions: TK-10, 48 h
[2] = read-out: LC50 (the source's name)

Sequence of RAF proto-oncogene serine/threonine-protein kinase (P04049 whole entry): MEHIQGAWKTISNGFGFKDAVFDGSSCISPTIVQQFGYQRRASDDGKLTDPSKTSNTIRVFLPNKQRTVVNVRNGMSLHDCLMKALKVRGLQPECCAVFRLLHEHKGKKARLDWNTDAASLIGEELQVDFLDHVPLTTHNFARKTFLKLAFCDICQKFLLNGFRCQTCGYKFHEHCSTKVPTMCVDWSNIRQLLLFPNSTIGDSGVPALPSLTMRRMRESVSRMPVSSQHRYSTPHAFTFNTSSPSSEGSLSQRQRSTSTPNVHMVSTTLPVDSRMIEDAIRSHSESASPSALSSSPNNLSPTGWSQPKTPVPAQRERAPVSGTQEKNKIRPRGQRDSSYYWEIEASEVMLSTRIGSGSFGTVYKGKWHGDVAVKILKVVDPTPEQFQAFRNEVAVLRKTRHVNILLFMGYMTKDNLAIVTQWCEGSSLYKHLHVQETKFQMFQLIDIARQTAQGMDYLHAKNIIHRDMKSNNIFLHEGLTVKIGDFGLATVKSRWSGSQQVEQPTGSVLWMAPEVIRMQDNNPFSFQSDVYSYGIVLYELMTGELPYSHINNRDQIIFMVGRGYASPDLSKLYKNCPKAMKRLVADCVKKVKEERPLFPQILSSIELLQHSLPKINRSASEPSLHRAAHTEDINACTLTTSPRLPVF

`COc1cc2cc(Oc3ccc(NC(=O)Nc4cc(C(F)(F)F)cc(C(F)(F)F)c4)cc3)c(C)nc2cc1OC` was tested, and the GI50 (SW-620) was 1.94 µM, the LC50 (SW-620) was 39.3 µM and the TGI (SW-620) was 5.71 µM. It also gave a GI50 (NCI-H23) of 0.639 to 0.64 µM, a TGI (NCI-H23) of 3.55 µM and a CC50 (NCI-H23; [2]) of 32.3 µM. The GI50 (U-251) was 1.08 µM, the TGI (U-251) was 2.47 µM and the CC50 (U-251; [2]) was 5.61 µM. For the same compound, the GI50 (MCF7) was 0.54 µM, the TGI (MCF7) was 2.36 µM and the CC50 (MCF7; [2]) was 5.75 µM. For the same compound, the GI50 (NCI-H522) was 1.25 µM, the TGI (NCI-H522) was 2.95 µM and the CC50 (NCI-H522; [2]) was 6.95 µM. The GI50 (MDA-MB-231) was 1.08 µM, the TGI (MDA-MB-231) was 2.49 µM and the CC50 (MDA-MB-231; [2]) was > 100 µM. For the same compound, the GI50 (SK-OV-3) was 1.71 µM, the TGI (SK-OV-3) was 3.47 µM and the CC50 (SK-OV-3; [2]) was 5.91 µM. For the same compound, the GI50 (K562) was 0.57 µM, the LC50 (concentration killing 50% of cells) (K562) was 17 µM and the TGI (K562) was 2.53 µM. It also gave a growth at 0.1 µM (SR) of 97%, an IC50 [1] of 0.37 µM and a growth at 1 µM (SNB-75) of 75%. It also gave a GI50 (HCT-116) of 0.589 to 0.59 µM, an LC50 (50% lethal concentration) (HCT-116) of 5.16 µM and a TGI (HCT-116) of 1.92 µM. The GI50 (SF-539) was 1.45 µM, the TGI (SF-539) was 3.21 µM and the CC50 (SF-539; [2]) was 7.11 µM. For the same compound, the growth at 100 µM (SNB-19) was -79%, the GI50 (HOP-92) was 1.12 µM and the LC50 (HOP-92) was 40.9 µM. The TGI (HOP-92) was 3.9 µM, the GI50 (A549) was 1.42 µM and the TGI (A549) was 4.75 µM. The CC50 (A549; [2]) was 22.5 µM, the GI50 (OVCAR-5) was 1.93 µM and the TGI (OVCAR-5) was 4.14 µM. The CC50 (OVCAR-5; [2]) was 8.88 µM, the growth at 100 µM (SK-MEL-5) was -93% and the GI50 (MDA-MB-435) was 1.8 µM. For the same compound, the TGI (MDA-MB-435) was 4.28 µM, the CC50 (MDA-MB-435; [2]) was 11.6 µM and the GI50 (NCI-H460) was 0.96 µM. For the same compound, the TGI (NCI-H460) was 2.72 µM, the CC50 (NCI-H460; [2]) was 7.53 µM and the GI50 (SF-295) was 0.48 to 0.481 µM. The TGI (SF-295) was 1.94 µM, the CC50 (SF-295; [2]) was 5.71 µM and the GI50 (CAKI-1) was 1.41 µM. The TGI (CAKI-1) was 5.1 µM, the CC50 (CAKI-1; [2]) was 15.3 µM and the GI50 (NCI/ADR-RES) was 1.27 µM. For the same compound, the TGI (NCI/ADR-RES) was 3.44 µM, the CC50 (NCI/ADR-RES; [2]) was 7.04 µM and the growth at 0.01 µM (OVCAR-8) was 111%. It also gave a GI50 (TK-10) of 2.32 µM, a TGI (TK-10) of 9.18 µM and a CC50 (TK-10; [2]) of 5.99 µM.
